Source: ChEMBL document CHEMBL2440076, “New triarylpyrazoles as broad-spectrum anticancer agents: design, synthesis, and biological evaluation” (Eur J Med Chem, 2013)

Key:
Type in all cases: functional
KM12 = assay: Growth inhibition of human KM12 cells assessed as cell growth at 5X10'-5 M after 48 hrs by sulforhodamine B assay; conditions: KM12, 48 h, read-out: Activity
NCI-H522 = assay: Growth inhibition of human NCI-H522 cells assessed as cell growth at 5X10'-7 M after 48 hrs by sulforhodamine B assay; conditions: NCI-H522, 48 h, read-out: Activity
HCT-15 [1] = assay: Growth inhibition of human HCT15 cells assessed as cell growth at 5X10'-6 M after 48 hrs by sulforhodamine B assay; conditions: HCT-15, 48 h, read-out: Activity
K562 = assay: Growth inhibition of human K562 cells assessed as cell growth at 5X10'-5 M after 48 hrs by sulforhodamine B assay; conditions: K562, 48 h, read-out: Activity
SF-268 = assay: Growth inhibition of human SF268 cells assessed as cell growth at 5X10'-9 M after 48 hrs by sulforhodamine B assay; conditions: SF-268, 48 h, read-out: Activity
SN12C [2] = assay: Growth inhibition of human SN12C cells assessed as cell growth at 5X10'-7 M after 48 hrs by sulforhodamine B assay; conditions: read-out: Activity
OVCAR-4 = assay: Growth inhibition of human OVCAR4 cells assessed as cell growth at 5X10'-8 M after 48 hrs by sulforhodamine B assay; conditions: OVCAR-4, 48 h, read-out: Activity
PC-3 = assay: Growth inhibition of human PC3 cells assessed as cell growth at 5X10'-9 M after 48 hrs by sulforhodamine B assay; conditions: PC-3, 48 h, read-out: Activity
SF-295 = assay: Growth inhibition of human SF295 cells assessed as cell growth at 5X10'-7 M after 48 hrs by sulforhodamine B assay; conditions: SF-295, 48 h, read-out: Activity
UACC-62 [3] = assay: Growth inhibition of human UACC62 cells assessed as cell growth at 5X10'-5 M after 48 hrs by sulforhodamine B assay; conditions: UACC-62, 48 h, read-out: Activity
RPMI-8226 = assay: Growth inhibition of human RPMI8226 cells assessed as cell growth at 5X10'-6 M after 48 hrs by sulforhodamine B assay; conditions: RPMI-8226, 48 h, read-out: Activity
OVCAR-5 = assay: Growth inhibition of human OVCAR5 cells assessed as cell growth at 5X10'-8 M after 48 hrs by sulforhodamine B assay; conditions: OVCAR-5, 48 h, read-out: Activity
COLO 205 = assay: Growth inhibition of human COLO205 cells assessed as cell growth at 5X10'-6 M after 48 hrs by sulforhodamine B assay; conditions: COLO 205, 48 h, read-out: Activity
HT-29 [4] = assay: Growth inhibition of human HT-29 cells assessed as cell growth at 5X10'-6 M after 48 hrs by sulforhodamine B assay; conditions: HT-29, 48 h, read-out: Activity
SK-MEL-2 [5] = assay: Growth inhibition of human SK-MEL-2 cells assessed as cell growth at 5X10'-5 M after 48 hrs by sulforhodamine B assay; conditions: SK-MEL-2, 48 h, read-out: Activity
SNB-19 = assay: Growth inhibition of human SNB19 cells assessed as cell growth at 5X10'-9 M after 48 hrs by sulforhodamine B assay; conditions: SNB-19, 48 h, read-out: Activity
HT-29 [6] = assay: Growth inhibition of human HT-29 cells assessed as cell growth at 5X10'-7 M after 48 hrs by sulforhodamine B assay; conditions: HT-29, 48 h, read-out: Activity
RXF 393 = assay: Growth inhibition of human RXF393 cells assessed as cell growth at 5X10'-7 M after 48 hrs by sulforhodamine B assay; conditions: RXF 393, 48 h, read-out: Activity
[7] = Growth inhibition of human NCI-ADR-RES cells assessed as cell growth at 5X10'-8 M after 48 hrs by sulforhodamine B assay; conditions: read-out: Activity
SR = assay: Growth inhibition of human SR cells assessed as cell growth at 5X10'-7 M after 48 hrs by sulforhodamine B assay; conditions: read-out: Activity
NCI-H23 = assay: Growth inhibition of human NCI-H23 cells assessed as cell growth at 5X10'-5 M after 48 hrs by sulforhodamine B assay; conditions: NCI-H23, 48 h, read-out: Activity
MOLT-4 = assay: Growth inhibition of human MOLT4 cells assessed as cell growth at 5X10'-5 M after 48 hrs by sulforhodamine B assay; conditions: MOLT-4, 48 h, read-out: Activity
SN12C [8] = assay: Growth inhibition of human SN12C cells assessed as cell growth at 5X10'-6 M after 48 hrs by sulforhodamine B assay; conditions: read-out: Activity
MDA-MB-435 = assay: Growth inhibition of human MDA-MB-435 cells assessed as cell growth at 5X10'-5 M after 48 hrs by sulforhodamine B assay; conditions: MDA-MB-435, 48 h, read-out: Activity
A549 = assay: Growth inhibition of human A549/ATCC cells assessed as cell growth at 5X10'-6 M after 48 hrs by sulforhodamine B assay; conditions: A549, 48 h, read-out: Activity
UACC-62 [9] = assay: Growth inhibition of human UACC62 cells assessed as cell growth at 5X10'-7 M after 48 hrs by sulforhodamine B assay; conditions: UACC-62, 48 h, read-out: Activity
SF-539 = assay: Growth inhibition of human SF539 cells assessed as cell growth at 5X10'-9 M after 48 hrs by sulforhodamine B assay; conditions: SF-539, 48 h, read-out: Activity
MDA-MB-468 = assay: Growth inhibition of human MDA-MB-468 cells assessed as cell growth at 5X10'-5 M after 48 hrs by sulforhodamine B assay; conditions: MDA-MB-468, 48 h, read-out: Activity
SW-620 = assay: Growth inhibition of human SW620 cells assessed as cell growth at 5X10'-7 M after 48 hrs by sulforhodamine B assay; conditions: SW-620, 48 h, read-out: Activity
BT-549 = assay: Growth inhibition of human BT549 cells assessed as cell growth at 5X10'-8 M after 48 hrs by sulforhodamine B assay; conditions: BT-549, 48 h, read-out: Activity
SK-MEL-2 [10] = assay: Growth inhibition of human SK-MEL-2 cells assessed as cell growth at 5X10'-6 M after 48 hrs by sulforhodamine B assay; conditions: SK-MEL-2, 48 h, read-out: Activity
MDA-MB-231 = assay: Growth inhibition of human MDA-MB-231 cells assessed as cell growth at 5X10'-6 M after 48 hrs by sulforhodamine B assay; conditions: MDA-MB-231, 48 h, read-out: Activity
[11] = Growth inhibition of human HCC2998 cells assessed as cell growth at 5X10'-6 M after 48 hrs by sulforhodamine B assay; conditions: HCC 2998, 48 h, read-out: Activity
HCT-116 = assay: Growth inhibition of human HCT116 cells assessed as cell growth at 5X10'-7 M after 48 hrs by sulforhodamine B assay; conditions: HCT-116, 48 h, read-out: Activity
HCT-15 [12] = assay: Growth inhibition of human HCT15 cells assessed as cell growth at 5X10'-9 M after 48 hrs by sulforhodamine B assay; conditions: HCT-15, 48 h, read-out: Activity
Malme-3M = assay: Growth inhibition of human MALME-3M cells assessed as cell growth at 5X10'-6 M after 48 hrs by sulforhodamine B assay; conditions: read-out: Activity

| SMILES | growth at 50 µM (KM12) | growth at 0.5 µM (NCI-H522) | growth at 5 µM (HCT-15 [1]) | growth at 50 µM (K562) | growth at 0.005 µM (SF-268) | growth at 0.5 µM (SN12C [2]) | growth at 0.05 µM (OVCAR-4) | growth at 0.005 µM (PC-3) | growth at 0.5 µM (SF-295) | growth at 50 µM (UACC-62 [3]) | growth at 5 µM (RPMI-8226) | growth at 0.05 µM (OVCAR-5) | growth at 5 µM (COLO 205) | growth at 5 µM (HT-29 [4]) | growth at 50 µM (SK-MEL-2 [5]) | growth at 0.005 µM (SNB-19) | growth at 0.5 µM (HT-29 [6]) | growth at 0.5 µM (RXF 393) | growth at 0.05 µM [7] | growth at 0.5 µM (SR) | also measured |
| --- | --- | --- | --- | --- | --- | --- | --- | --- | --- | --- | --- | --- | --- | --- | --- | --- | --- | --- | --- | --- | --- |
| COc1cc(-c2nn(-c3cccc(NC(=O)Nc4cc(C(F)(F)F)cc(C(F)(F)F)c4)c3)cc2-c2ccncc2)ccc1Cl | -68% | 60% | -57% | -16% | 100% | 75% | 92% | 92% | 45% | -72% | 3% | 87% | -94% | -68% | -84% | 95% | 70% | 82% | 106% | 80% | growth at 50 µM (NCI-H23): -59%; growth at 50 µM (MOLT-4): -11%; growth at 5 µM (SN12C [8]): -16%; growth at 50 µM (MDA-MB-435): -64%; growth at 5 µM (A549): -31%; growth at 0.5 µM (UACC-62 [9]): 66%; growth at 0.005 µM (SF-539): 88%; growth at 50 µM (MDA-MB-468): -53%; growth at 0.5 µM (SW-620): 69%; growth at 0.05 µM (BT-549): 102%; growth at 5 µM (SK-MEL-2 [10]): -73%; growth at 5 µM (MDA-MB-231): -84%; growth at 5 µM [11]: -70%; growth at 0.5 µM (HCT-116): 62%; growth at 0.005 µM (HCT-15 [12]): 97%; growth at 5 µM (Malme-3M): -47% |
| O=C(Nc1cccc(-n2cc(-c3ccncc3)c(-c3ccc(Cl)c(O)c3)n2)c1)Nc1cc(C(F)(F)F)cc(C(F)(F)F)c1 | -85% | 65% | -9% | -26% | 98% | 72% | 95% | 90% | 61% | -89% | 4% | 89% | -94% | -54% | -77% | 90% | 72% | 82% | 103% | 72% | growth at 50 µM (NCI-H23): -75%; growth at 50 µM (MOLT-4): -29%; growth at 5 µM (SN12C [8]): 2%; growth at 50 µM (MDA-MB-435): -69%; growth at 5 µM (A549): -33%; growth at 0.5 µM (UACC-62 [9]): 69%; growth at 0.005 µM (SF-539): 98%; growth at 50 µM (MDA-MB-468): -55%; growth at 0.5 µM (SW-620): 85%; growth at 0.05 µM (BT-549): 111%; growth at 5 µM (SK-MEL-2 [10]): -28%; growth at 5 µM (MDA-MB-231): -68%; growth at 5 µM [11]: -43%; growth at 0.5 µM (HCT-116): 46%; growth at 0.005 µM (HCT-15 [12]): 98%; growth at 5 µM (Malme-3M): -21% |
| COc1cc(-c2nn(-c3cccc(NC(=O)Nc4ccc(Cl)c(Cl)c4)c3)cc2-c2ccncc2)ccc1Cl | -50% | 68% | 10% | 3% | 100% | 82% | 94% | 99% | 62% | -63% | -10% | 90% | -89% | 2% | -59% | 92% | 81% | 76% | 106% | 78% | growth at 50 µM (NCI-H23): -9%; growth at 50 µM (MOLT-4): -19%; growth at 5 µM (SN12C [8]): 14%; growth at 50 µM (MDA-MB-435): -31%; growth at 5 µM (A549): 3%; growth at 0.5 µM (UACC-62 [9]): 75%; growth at 0.005 µM (SF-539): 94%; growth at 50 µM (MDA-MB-468): -31%; growth at 0.5 µM (SW-620): 89%; growth at 0.05 µM (BT-549): 104%; growth at 5 µM (SK-MEL-2 [10]): -52%; growth at 5 µM (MDA-MB-231): -47%; growth at 5 µM [11]: 2%; growth at 0.5 µM (HCT-116): 78%; growth at 0.005 µM (HCT-15 [12]): 95%; growth at 5 µM (Malme-3M): -38% |
